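48-hour exposure; five concentrations; linearly interpolated endpoints. TGI is the concentration that stops growth completely.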 *1 amine or outer side, *2 acyl side, *3 side chain or, on linkers, in order; H or OH if unused. Where a SMILES comes first, the peptide text is derived from it. Bridges are numbered along the chain shown (N, C = ends). Roman numbers before positions name the chains, in order. [ ]: non-standard residue; d: D form. Actinocin(9to1) = Cc1c2oc3c(C)ccc(C(=O)[*:1])c3nc-2c(C(=O)[*:2])c(N)c1=O; X48 = O=C1CC(C(=O)[*:2])N([*:1])C1; NMeV = CN[CH](C(=O)O)C(C)C; Sar = CNCC(=O)O
Key:
Experiment in all cases: NCI-60 cell line screen, 48 h
HOP-92 NSCLC = system: HOP-92 NSCLC
NCI-H226 lung = system: NCI-H226 lung
RXF 393 renal = system: RXF 393 renal
NCI-H460 lung = system: NCI-H460 lung
SN12C renal = system: SN12C renal
HCT-116 colon = system: HCT-116 colon
U251 CNS = system: U251 CNS
A549 NSCLC = system: A549 NSCLC
T-47D breast = system: T-47D breast
MDA-N = system: MDA-N
SF-295 CNS = system: SF-295 CNS
CAKI-1 renal = system: CAKI-1 renal
SK-OV-3 ovarian = system: SK-OV-3 ovarian
HCC-2998 colon = system: HCC-2998 colon
OVCAR-3 ovarian = system: OVCAR-3 ovarian
IGROV1 ovarian = system: IGROV1 ovarian
A498 renal = system: A498 renal
MALME-3M melanoma = system: MALME-3M melanoma
CCRF-CEM leukemia = system: CCRF-CEM leukemia
BT-549 breast = system: BT-549 breast

| SMILES | TGI (HOP-92 NSCLC) [µM] | TGI (NCI-H226 lung) [µM] | TGI (RXF 393 renal) [µM] | TGI (NCI-H460 lung) [µM] | TGI (SN12C renal) [µM] | TGI (HCT-116 colon) [µM] | TGI (U251 CNS) [µM] | TGI (A549 NSCLC) [µM] | TGI (T-47D breast) [µM] | TGI (MDA-N) [µM] | TGI (SF-295 CNS) [µM] | TGI (CAKI-1 renal) [µM] | TGI (SK-OV-3 ovarian) [µM] | TGI (HCC-2998 colon) [µM] | TGI (OVCAR-3 ovarian) [µM] | TGI (IGROV1 ovarian) [µM] | TGI (A498 renal) [µM] | TGI (MALME-3M melanoma) [µM] | TGI (CCRF-CEM leukemia) [µM] | TGI (BT-549 breast) [µM] |
| --- | --- | --- | --- | --- | --- | --- | --- | --- | --- | --- | --- | --- | --- | --- | --- | --- | --- | --- | --- | --- |
| O=C1OCC2(CO1)CC1C=CC2C1 (configuration not stated) | > 100 | > 100 | > 100 | > 100 | > 100 | > 100 | > 100 | > 100 | > 100 | > 100 | > 100 | > 100 | > 100 | > 100 | > 100 | > 100 | > 100 | > 100 |  |  |
| CCCCCCCC/C=C\CCCCCCC(F)C(=O)O (configuration not stated) | > 12.5 | > 12.5 | > 12.5 |  | > 12.5 | > 12.5 | > 12.5 | > 12.5 | > 12.5 | > 12.5 | > 12.5 | > 12.5 | > 12.5 | > 12.5 | > 12.5 | > 12.5 | > 12.5 | > 12.5 | > 12.5 |  |
| COc1ccc(CNc2nc3cc(C(F)(F)F)ccc3nc2C(=O)O)cc1OC | > 100 | > 100 |  | > 100 | 77.9 | 75.4 | 73.5 | > 100 | > 100 | > 100 | > 100 | > 100 | > 100 | 95.8 | 58.1 | 66 | 73.2 |  | 92.9 | > 100 |
| C=C(C)CC1=C(OCC)C(OC)(OCC)C1=O (configuration not stated) | > 100 | > 100 |  | > 100 | > 100 | > 100 | > 100 | > 100 | > 100 | > 100 | > 100 | > 100 | > 100 |  | > 100 | > 100 | > 100 |  | > 100 | > 100 |
| CCc1ccc(Nc2cc(=O)[nH]c(SCc3ccccc3)n2)cc1 | > 100 | > 100 | > 100 |  | > 100 | > 100 |  | > 100 | > 100 | > 100 | > 100 | > 100 | > 100 |  | > 100 | > 100 | > 100 | > 100 | > 100 | > 100 |
| Cc1cc2c(c(C=Nc3ccc([N+](=O)[O-])cc3)c1)OC1(C=C2)Oc2ccccc2C(=O)N1C (configuration not stated) | 50.9 | 46 | 47.5 | 42.7 | 46.2 | 30.9 | 42.8 | > 100 | 26.9 | > 100 | 77.1 | 48.4 | 59.8 | 36.2 | 60.9 | 56.6 | 61.6 |  | 39.8 | 58.7 |
| CC(=O)OCC1OC(n2c(C)c(N=Nc3ccccc3)c(C)c(C#N)c2=S)C(OC(C)=O)C(OC(C)=O)C1OC(C)=O (configuration not stated) | 28 |  | 32.4 | > 100 | > 100 | 60 |  | > 100 | > 100 | > 100 | 44.1 | > 100 | > 100 | > 100 | > 100 | > 100 |  | > 100 | > 100 | > 100 |
| O=C(c1cccc(OCc2ccccc2)c1OCc1ccccc1)N1CCSC1=S | > 100 | > 100 |  | > 100 | > 100 | > 100 | > 100 | > 100 | > 100 | > 100 | > 100 | > 92.9 | > 100 | > 100 | 62.9 | > 100 | 80.1 | > 72.9 | 24.4 | > 100 |
| CCOC(=O)n1[nH]c(=O)n(-c2ccccc2)c1=O |  | > 100 | > 100 | > 100 | > 100 | > 100 | > 100 | > 100 | > 100 | > 100 | > 100 | > 100 | > 100 | > 100 | > 100 | > 100 |  | > 100 | > 100 | > 100 |
| COC(=O)CCC(NC(=O)C(C)NC(=O)COC1C(O)C(OC(=O)CCNc2c3ccccc3nc3cccc([N+](=O)[O-])c23)OC(OCc2ccccc2)C1NC(C)=O)C(N)=O (configuration not stated) | > 10 | > 10 | 8.28 | > 10 | > 10 | 9.11 | > 10 | > 10 | > 10 | 6.04 | > 10 |  | > 10 | 5.8 | > 10 | > 10 | > 10 | 7.06 | > 10 | > 10 |
| Cc1c2oc3c(C)ccc(C(=O)NC4C(=O)NC(C(C)C)C(=O)N5CC(=O)CC5C(=O)N(C)CC(=O)N(C)C(C(C)C)C(=O)OC4C)c3nc-2c(C(=O)NC2C(=O)NC(C(C)C)C(=O)N3CC(=O)CC3C(=O)N(C)CC(=O)N(C)C(C(C)C)C(=O)OC2C)c(N)c1=O (configuration not stated) (I: TV[X48][Sar][NMeV] / II: TV[X48][Sar][NMeV]; ester I:1-I:C, II:1-II:C; linker I:N-II:N via Actinocin(9to1); configuration not given here) | > 1 | > 1 | > 1 | > 1 | > 1 | > 1 | > 1 | > 1 | > 1 | > 1 | > 1 | > 1 | > 1 | > 1 | > 1 | > 1 | > 1 | > 1 | > 1 |  |
| N#CC1=C(S)N(C2OC(CO)C(O)C(O)C2O)C(c2ccccc2)=CC1c1ccccc1 (configuration not stated) | > 100 | > 100 | 92.7 | > 100 | > 100 | > 100 | > 100 | > 100 | 96.7 | > 100 | > 100 | > 100 |  | 96.4 | 98.5 | > 100 | > 100 | > 100 | > 100 | > 100 |
| CN(/N=C/c1cccs1)c1ccc(Cl)cc1[N+](=O)[O-] |  | 97.3 | > 100 | > 100 | > 100 | > 100 | 59.5 | > 100 | > 100 | > 100 | > 100 | > 100 | > 100 | > 100 | > 100 | > 100 |  |  | 73.2 | > 100 |
| CCOC(=O)C(NC(=O)c1ccccc1)(Nc1ccc(S(=O)(=O)Nc2nc(C)cc(C)n2)cc1)C(F)(F)F (configuration not stated) | > 100 | > 100 | > 100 | > 100 | > 100 | > 100 | > 100 | > 100 | > 100 | > 100 | > 100 | > 100 | > 100 | > 100 | > 100 | > 100 |  | > 100 | > 100 | > 100 |
| COc1[nH]c(C(Cl)(Cl)Cl)c(Cl)c(=O)c1Cl | > 100 | > 100 |  | > 100 | > 100 | > 100 | > 100 | > 100 | > 100 | > 100 | > 100 | > 100 | > 100 | > 100 | > 100 | > 100 | > 100 | > 100 | > 100 | > 100 |
| COC(=O)C(=O)c1c2ccccc2n2ccc3c4ccccc4[nH]c3c12 | > 10 | > 10 | > 10 | > 10 | > 10 | > 10 | > 10 | > 10 | > 10 | > 10 | > 10 | > 10 | > 10 | > 10 | > 10 | > 10 |  | > 10 | > 10 | > 10 |
| CC1(C)C=C(/C=N/Nc2ccc([N+](=O)[O-])cc2)C(C#N)=C(O)C1(C#N)C#N | > 100 | > 100 | > 100 | > 100 | > 100 | > 100 | > 100 | > 100 | > 100 | > 100 | > 100 | > 100 | > 100 | > 100 | > 100 | > 100 |  | > 100 | > 100 | > 100 |
| COC(=O)C[C@@H]1C(C)(C)[C@@H]2O[C@@]34C[C@@H]2C(=O)[C@]1(C)[C@H]3CC[C@@]1(C)[C@H](c2ccoc2)OC(=O)C[C@]14O | > 100 | > 100 |  | > 100 | > 100 | > 100 | > 100 | > 100 | > 100 | > 100 | > 100 | > 100 | > 100 |  | > 100 | > 100 | > 100 | > 100 | > 100 | > 100 |
| COc1ccc(C(=O)N2CCc3c([nH]c4ccccc34)C2C(=O)O)o1 (configuration not stated) | > 10 |  |  |  | > 10 | > 10 | > 10 | > 10 | > 10 | > 10 | > 10 | > 10 | > 10 | > 10 | > 10 | > 10 | > 10 | > 10 | > 10 | > 10 |
| CC(C)(C)[Si](C)(C)OCCCCC1CC2(S(=O)(=O)C3=CC=C=C=C3)ON1CC2S(=O)(=O)c1ccccc1 (configuration not stated) | > 100 | > 100 | > 100 | > 100 | > 100 | > 100 | > 100 | > 100 | > 100 | > 100 |  |  | > 100 | > 100 | > 100 | > 100 | > 100 |  |  | > 100 |
| Cc1ccc(S(=O)(=O)OC2=C/C(=N\c3onc(C)c3C)c3ccccc3C2=O)cc1 | 33.2 | > 100 |  | > 100 | 37.4 | 37.7 | 21.1 | > 100 | 64.8 | > 100 | > 100 | 37.8 | > 100 |  | 30.1 |  | > 100 | 43.3 |  | 71.9 |
| Oc1c2cc(Br)cc1CCc1cc(Br)cc(c1O)CC2 |  | 59.5 | 70.4 | 39.4 | > 100 | 30.1 | 65.8 | > 100 | > 100 | > 100 | 52.5 | > 100 | 76 | 32.9 | 48.8 | > 100 | 73.8 | > 100 | 97.5 | 73.1 |
| CCCCCCCCCCCCn1c(=O)cc(NCCCC)c2cc3c(NCCCC)cc(=O)n(CCCCCCCCCCCC)c3nc21 | > 100 | > 100 |  | > 100 | > 100 | > 100 | > 100 | > 100 | > 100 | > 100 | > 100 | > 100 | > 100 | > 100 | > 100 |  | > 100 | > 100 |  | > 100 |
| CC1=NN(C(=O)CC(=O)Nc2ccccc2Cl)C(=O)C1N=Nc1ccc(C(=O)O)cc1 (configuration not stated) | > 100 |  | > 100 | > 100 | > 100 | > 100 | > 100 | > 100 | > 100 | > 100 | > 100 | > 100 |  | > 100 | > 100 | > 100 | > 100 | > 100 | > 100 | > 100 |
